According to BindingDB's records for doi:10.1021/jm2007062 (Tranzyme Pharma, 2011):

biological target: Growth hormone secretagogue receptor type 1 (Homo sapiens) (UniProt Q92847); experiment: Displacement of [125I-His9]-ghrelin from human GRLN receptor by radioligand binding assay
Sequence (Q92847 whole entry, looked up): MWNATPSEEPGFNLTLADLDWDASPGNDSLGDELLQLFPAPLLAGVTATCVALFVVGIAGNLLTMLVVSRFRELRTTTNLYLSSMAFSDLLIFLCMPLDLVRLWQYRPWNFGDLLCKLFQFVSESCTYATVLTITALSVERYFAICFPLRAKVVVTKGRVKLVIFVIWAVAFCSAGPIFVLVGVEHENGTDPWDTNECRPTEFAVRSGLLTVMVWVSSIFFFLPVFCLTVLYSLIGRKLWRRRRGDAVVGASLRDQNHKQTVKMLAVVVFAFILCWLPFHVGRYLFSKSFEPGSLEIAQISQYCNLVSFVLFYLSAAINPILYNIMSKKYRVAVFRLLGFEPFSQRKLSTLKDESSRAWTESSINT

Compound | Ki
CCC[C@@H]1NCCOc2ccccc2CCCNC(=O)[C@@H](CO)NC(=O)CN(C)C1=O | > 10 µM
CN1CC(=O)N[C@H](Cc2ccccc2)C(=O)NCCCc2ccccc2OCCN[C@@H](CCC(=O)O)C1=O | > 10 µM
CN1CC(=O)N[C@H](Cc2ccccc2)C(=O)NCCCc2ccccc2OCCN[C@@H](CO)C1=O | > 10 µM
CCC[C@@H]1NCCOc2ccccc2CCCNC(=O)[C@@H](CCCN)NC(=O)CN(C)C1=O | > 10 µM
CC[C@H](C)[C@@H]1NCCCCCCCNC(=O)[C@@H](Cc2ccccc2)NC(=O)[C@@H](C)N(C)C1=O | > 10 µM
CCC[C@@H]1NCCOc2ccccc2CCCNC(=O)[C@@H](CCC(=O)O)NC(=O)CN(C)C1=O | > 10 µM
